Experimental data from patent US20250064773A1, “TARGETING ERO1 ALPHA WITH AURONE DERIVATIVES” (West Virginia University Board of Governors on behalf of …, priority 2021, published 2025).

How the values were obtained:
purified human ERO1α = molecular target: T1, purified human ERO1α (Homo sapiens, UniProt Q96HE7, C104A/C131A/C166A); assay: Lineweaver-Burk enzyme kinetics with varying PDI (Amplex Red); format: biochemical; conditions: varying PDI and T151742 concentrations
T1 construct: made in house
T1 sequence (Q96HE7 22-468 C104A/C131A/C166A): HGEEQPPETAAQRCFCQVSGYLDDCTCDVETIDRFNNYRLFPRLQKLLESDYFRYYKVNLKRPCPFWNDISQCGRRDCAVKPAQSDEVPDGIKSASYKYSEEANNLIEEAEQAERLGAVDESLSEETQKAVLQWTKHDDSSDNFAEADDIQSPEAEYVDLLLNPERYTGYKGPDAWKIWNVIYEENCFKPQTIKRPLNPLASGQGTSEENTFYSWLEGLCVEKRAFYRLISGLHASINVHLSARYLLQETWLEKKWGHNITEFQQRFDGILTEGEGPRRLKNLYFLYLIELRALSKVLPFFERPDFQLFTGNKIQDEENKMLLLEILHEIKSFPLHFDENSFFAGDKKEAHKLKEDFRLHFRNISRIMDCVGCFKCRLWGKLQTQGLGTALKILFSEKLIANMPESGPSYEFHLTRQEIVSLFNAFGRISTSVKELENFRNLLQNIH

[1] = system: normal lung epithelial cell line Beas-2B; assay: MTT viability assay, Beas-2B; format: cell-based; conditions: Homo sapiens, Normal Lung Epithelium
Source text: Cell Lines: PC-9 cell line used was obtained from Sigma Aldrich and grown in RPMI 1640 medium with 10% fetal bovine serum and 1% penicillin/streptomycin. HCC4006, U266, MM1.s, and Beas-2B cell lines were obtained from ATCC and cultured in either RPMI 1640 or DMEM with 10% fetal bovine serum and 1% penicillin/streptomycin. All cell lines were also checked for mycoplasma every six months and subjected to short tandem repeat (STR) analysis for cell line validation. CRISPR Cas9: CRISPR Guide RNA 2 targeting ERO1α and CRISPR Guide RNA 4 were purchased from Genscript in the pLentiCRISPR V2 plasmid containing puromycin/ampicillin selection marker. Lentivirus was made from HEK 293T cells by co-transfection with GuideRNA of interest, pVSVG, and pPAX2 plasmids. […] Plate was then read on the BioTek Cytation 5 at 530/590 nm. […] Plate was then read at 570 nm. Treated wells were all compared to DMSO control wells to calculate percent growth inhibition and the IC50 was calculated using GraphPad (log(inhibitor) vs growth inhibition). […] Images were then quantified using ImageJ. […] Cells were aliquoted at 1 million cells per PCR tube in PBS and heated in Bio-Rad T100 thermal cycler at indicated temperatures (RT, 46° C., 48° C., 50° C., 52° C., 54° C., 56°, 58° C., and 60° C.) for 3 minutes and aggregation temperature was determined by western blot analysis. […]

## CN(C)c1ccc(/C=C2\Oc3cc(O)ccc3C2=O)cc1 [Compound T151742]
Purified human ERO1α
  mechanism of inhibition of ERO1α: non-competitive (mixed) inhibitor
[1]
  IC50: > 100 µM
